Earlier results on one compound are cited in US20240397917A1, “ANIMAL PRODUCTION METHOD” (DSM IP ASSETS B.V., priority 2021, published 2024).

For series [1] the following is noted: in vivo.
The conditions of series [2]: per 1% increase in plasma levels of 25-OH-D3; average of broiler trials.

For `C=C1CC[C@H](O)C/C1=C/C=C1\CCC[C@]2(C)[C@@H]([C@H](C)CCCC(C)(C)O)CC[C@@H]12` [HyD, calcidiol], the absorption (at the same level of inclusion in feed) was 74.9%. For the setting “when fed”, the “absorption in the intestine in comparison to Vitamin D3” value is recorded as “more efficient absorption”, the “excretion in comparison to Vitamin D3” value is recorded as “less excretion” and the “retention in comparison to Vitamin D3” value is on record as “greater retention”. Further, the “dose without toxic effects” value in series [1] is “up to 10 times its recommended dose”. Further, in series [2], the “improvement in ADG” value is recorded as 0.029%, the “improvement in bone strength” value is 0.173%, the “improvement in breast meat yield” value was 0.008% and the “improvement in gait score” value is recorded as 0.296%.
